What was measured:
[1] = test system: primary lung fibroblasts from scleroderma patients; assay: RT-qPCR of pro-fibrotic mRNAs in TGF-β-treated primary lung fibroblasts; format: cell-based, human; details: peptide 10 ng/mL plus TGF-β 10 ng/mL, 24 hours, delta-delta Ct, GAPDH housekeeping
Experimental: Primary lung fibroblasts from scleroderma patients were treated with TGF-β alone, or with IP-10-1 (SEQ ID NO: 2; FIGS. 1A-1C), IP-10-2 (SEQ ID NO: 3; FIGS. 1D-1F), or IP-10-3 (SEQ ID NO: 4; FIGS. 1G-1I) peptide (10 ng/mL) in the presence or absence of TGF-β (10 ng/mL) for 24 hours and then analyzed by RT-qPCR for the fibrotic ECM markers tenascin C (FIGS. 1A, 1D, 1G), collagen 1 (FIGS. 1B, 1E, 1H) and fibronectin (FIGS. 1C, […], 1I). Treatment with TGF-β alone induced expression of mRNAs for tenascin C (TNC), collagen 1 (COL1A1), and fibronectin (FN1) in primary lung fibroblasts. When cells were treated with an IP-10 peptide in combination with TGF-β, the IP-10 peptides reduced or prevented induction in mRNA expression of TNC, COL1A1, and FN1.
Primary lung fibroblasts from scleroderma patients were plated in 6-well plates in complete medium and incubated overnight. The next day, the medium was changed to quiescent medium and the cells were incubated in this medium for 24 hours. The following day, cells were left untreated, treated with 10 ng/mL of IP-10-1 (SEQ ID NO: 2), IP-10-2 (SEQ ID NO: 3) or IP-10-3 (SEQ ID NO: 4) peptide, treated with 10 ng/mL TGF-β, or treated with the combination of peptide and TGF-β for 24 hours. Total RNA was extracted using the Qiagen miRNeasy kit (Qiagen) and treated with DNase1, according to the manufacturer's instructions. RNA was then quantified and converted to cDNA using the Clontech RNA to cDNA EcoDry Double Primed Premix (Takara). qPCR was performed using PowerUp Sybr Green (Invitrogen) on an Applied Biosystems Quant Studio 3 instrument. Primers were from IDT and were designed using IDT Primer Quest and NCBI Primer Blast tools. The delta-delta Ct method was used to determine relative expression of the pro-fibrotic mRNAs for tenascin C (TNC), collagen 1 (COL1A1), and fibronectin (FN1). GAPDH was used as a housekeeping gene.

CXCR3B isoform = target: T1, CXCR3B isoform (Homo sapiens, UniProt P49682); details: described in WO 2013/032853 and WO 2015/112505; cited from earlier work
T1 construct: host or cells: dermal endothelial cells (as described in the cited PCT publications)
T1 sequence (P49682 1-415 isoform P49682-2): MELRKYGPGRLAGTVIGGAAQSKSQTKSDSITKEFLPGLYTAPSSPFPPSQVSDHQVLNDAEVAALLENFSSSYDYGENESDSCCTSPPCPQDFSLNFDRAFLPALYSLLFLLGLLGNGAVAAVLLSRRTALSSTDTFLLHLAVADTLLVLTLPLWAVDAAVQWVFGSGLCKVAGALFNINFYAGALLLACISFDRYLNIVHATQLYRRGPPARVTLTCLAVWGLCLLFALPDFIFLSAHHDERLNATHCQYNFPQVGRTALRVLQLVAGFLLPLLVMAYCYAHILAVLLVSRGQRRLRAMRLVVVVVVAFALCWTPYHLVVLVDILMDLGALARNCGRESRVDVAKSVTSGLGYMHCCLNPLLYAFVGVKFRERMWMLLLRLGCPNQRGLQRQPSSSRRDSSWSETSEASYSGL

angiogenesis = details: earlier work, not tested in anti-fibrotic applications; cited from earlier work

Sequence	expression of collagen 1 (COL1A1) mRNA relative to treatment with TGF-β alone [1]	expression of fibronectin (FN1) mRNA relative to treatment with TGF-β alone [1]	expression of tenascin C (TNC) mRNA relative to treatment with TGF-β alone [1]	activation of the CXCR3B isoform (CXCR3B isoform)	inhibition of angiogenesis (angiogenesis)
FAKAIKNFAKAVAKFA [IP-10-3, CXCL10 (IP-10) peptide variant]	significantly reduced or prevented	significantly reduced or prevented	significantly reduced or prevented		
PESKVIKNLLKVASKERSKRSP [IP-10-1, CXCL10 (IP-10) peptide variant]	significantly reduced or prevented	significantly reduced or prevented	significantly reduced or prevented		
PESRVIKNLLRVVSKEKSRRSP [IP-10-2, CXCL10 (IP-10) peptide variant]	significantly reduced or prevented	significantly reduced or prevented	significantly reduced or prevented		
PESKAIKNLLKAVSKEMSKRSP [IP-10p, CXCL10 peptide consisting of the α-helical domain (residues 77-98 of human CXCL10)]				activates the CXCR3B isoform	able to inhibit angiogenesis

Source: patent US20220313777A1, “INHALED DELIVERY OF PEPTIDE MIMICS OF CXCL10 FOR TARGETED ANTI-FIBROTIC THERAPY” (University of Pittsburgh - Of the Commonwealth System of …, priority 2019, published 2022)
